Like-named read-outs stand apart in the source and are kept apart here.
Assays:
[1] = tested on: human DNMT1; assay: ELISA EpiQuik DNA methyltransferase (DNMT) activity/inhibitor assay; format: biochemical; conditions: 200 nM purified DNMT1, EpiQuik kit; for Inh% at 50 μM: 50 μM compound; for Inh% at 100 μM: 100 μM compound
Description: (§1) All the compounds were first screened using an ELISA EpiQuik DNA methyltransferase (DNMT) activity/inhibitor assay kit (Epigentek). To measure the effects of the compounds on human DNMT1 activity, 200 nM purified DNMT1 was incubated with 50 µM and 100 µM of the different compounds and S-adenosylmethionine in the DNMT assay buffer in the assay plate at 37 °C for 2 h[36]. Next, every sample was incubated with the capture and detection antibody, followed by incubation with developer solution for 10 min at room temperature. The absorbance was measured at 450 nm using a POLARstar Omega microplate reader (BMG). S-Adenosylhomocysteine (AdoHcy) was used as a positive control. Methylation inhibition assays for EZH2, LSD, and G9a were performed in modified Tris, pH 9.0, buffer using AlphaLisa technology. An amount of 10 µL of the reaction system contained a corresponding concentration of SAM (Sigma) (EZH2 50 µM, LSD 50 µM, and G9a 50 µM), which was the Km value in each enzymatic reaction, plus 100 nM biotinylated peptide H3 (1–21) (synthesis by GLChina) and the relevant enzyme concentration (0.03 nM EZH2, 0.03 nM LSD, and 0.03 nM G9a). The proteins were preincubated with various compound concentrations for 15 min at room temperature before the substrate and SAM were added. After 60 min of incubation at room temperature, acceptor and donor AlphaLisa beads were added according to the manufacturer’s recommendations. The signals were read in Alpha mode with an EnSpire multimode plate reader (PerkinElmer). IC50 values were derived by fitting the data for the inhibition percentage to a dose-response curve by non-linear regression in GraphPad Prism 5.0[20].
DNMT1 inhibition test was performed on 30 candidates to verify their biochemical activities. The EpiQuik DNA methyl-transferase (DNMT) activity/inhibitor assay kit (Epigentek) was used to identify the activity of synthetic compounds.

[2] = target: DNMT1 (Homo sapiens, UniProt P26358); assay: H3-labelled radioactive methylation assay; format: biochemical; conditions: H3-labeled radioactive methylation assay; 40 nM DNMT1
DNMT1, sequence (P26358 whole entry): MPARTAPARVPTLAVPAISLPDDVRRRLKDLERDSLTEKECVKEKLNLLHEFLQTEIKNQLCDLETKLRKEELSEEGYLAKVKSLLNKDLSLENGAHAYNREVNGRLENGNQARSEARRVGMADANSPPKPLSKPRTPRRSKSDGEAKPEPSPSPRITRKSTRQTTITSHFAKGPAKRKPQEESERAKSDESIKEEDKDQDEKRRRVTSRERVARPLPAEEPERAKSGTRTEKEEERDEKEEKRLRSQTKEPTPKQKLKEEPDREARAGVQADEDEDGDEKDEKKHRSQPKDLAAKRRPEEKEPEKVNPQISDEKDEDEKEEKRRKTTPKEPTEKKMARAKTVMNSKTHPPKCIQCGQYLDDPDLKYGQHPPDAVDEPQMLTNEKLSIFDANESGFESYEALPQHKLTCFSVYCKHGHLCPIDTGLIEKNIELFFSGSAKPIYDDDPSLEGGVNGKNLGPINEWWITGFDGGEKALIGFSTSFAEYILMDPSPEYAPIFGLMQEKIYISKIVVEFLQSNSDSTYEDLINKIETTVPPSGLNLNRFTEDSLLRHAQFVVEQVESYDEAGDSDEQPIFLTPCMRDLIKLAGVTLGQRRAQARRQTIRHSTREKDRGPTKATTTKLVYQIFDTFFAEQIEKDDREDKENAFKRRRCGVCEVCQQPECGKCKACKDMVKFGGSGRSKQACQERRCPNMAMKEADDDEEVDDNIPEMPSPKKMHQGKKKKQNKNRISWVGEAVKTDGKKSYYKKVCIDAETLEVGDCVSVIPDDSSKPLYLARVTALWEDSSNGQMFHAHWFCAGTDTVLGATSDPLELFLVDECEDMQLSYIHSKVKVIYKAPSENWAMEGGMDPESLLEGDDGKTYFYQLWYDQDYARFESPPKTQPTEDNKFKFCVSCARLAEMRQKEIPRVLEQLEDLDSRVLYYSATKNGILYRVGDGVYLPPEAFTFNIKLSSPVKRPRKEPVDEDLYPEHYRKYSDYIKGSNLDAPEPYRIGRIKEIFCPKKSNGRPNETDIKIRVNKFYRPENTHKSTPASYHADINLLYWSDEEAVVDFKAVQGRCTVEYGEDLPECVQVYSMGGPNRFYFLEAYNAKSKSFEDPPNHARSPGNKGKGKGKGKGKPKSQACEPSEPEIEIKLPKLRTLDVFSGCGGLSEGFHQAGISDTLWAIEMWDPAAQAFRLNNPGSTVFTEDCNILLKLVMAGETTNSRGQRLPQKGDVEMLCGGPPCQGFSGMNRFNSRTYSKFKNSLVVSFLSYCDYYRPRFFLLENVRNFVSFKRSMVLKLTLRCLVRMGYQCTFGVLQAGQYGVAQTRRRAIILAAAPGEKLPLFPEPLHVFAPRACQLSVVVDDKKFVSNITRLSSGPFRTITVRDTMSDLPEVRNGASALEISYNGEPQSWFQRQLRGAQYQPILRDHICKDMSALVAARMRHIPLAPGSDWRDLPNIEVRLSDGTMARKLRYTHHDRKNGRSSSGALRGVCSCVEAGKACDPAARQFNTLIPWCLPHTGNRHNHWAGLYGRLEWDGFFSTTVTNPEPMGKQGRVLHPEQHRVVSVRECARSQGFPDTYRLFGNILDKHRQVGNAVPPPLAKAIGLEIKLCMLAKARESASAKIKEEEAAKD
Description: The DNMT1 radioactive methylation inhibition assays were performed in 30 µL reactions containing 0.1 µM adenosyl-L-methionine S-[methyl-^3H] (^3H-SAM, ^15 Ci/mmol, PerkinElmer), 0.25 µg/mL poly (dI-dC)·poly (dI-dC) (Sigma), 40 nM DNMT1 in 50 mM Tris-HCl, pH 8.0, 1 mM DTT, 5% glycerol, and 100 µg/mL BSA. The proteins were preincubated with a range of compound concentrations for 15 min at room temperature before adding the substrate and [^3H] SAM. After 60 min of incubation at 37 °C, the reaction systems were transferred to a MultiScreen HTS filter plate (Millipore), and the plate was washed 3 times with doubly distilled H2O via a vacuum. The radioactivity was determined by liquid scintillation counting (MicroBeta, PerkinElmer). IC50 values were derived by fitting the data for the inhibition percentage to a dose-response curve by non-linear regression in GraphPad Prism 5.0.
To quantitatively analyse DNMT1 inhibitory effect, the H^3-labelled radioactive methylation assay was conducted to measure the methyltransferase activity of DNMT1 at a range of concentrations for these compounds.

[3] = tested on: DNMT3A/3L; assay: Methyltransferase enzymatic selectivity profiling, DNMT3A/3L; format: biochemical; conditions: 1 - selected enzyme inhibition/DNMT1 inhibition; 50 µM
Description: (§2) In addition to DNMT1, there are many other methyltransferases that can bind with S-adenosyl-L-methionine (SAM) to facilitate transmethylation reactions[24]^,[25]. To investigate the selectivity of these potent compounds for DNMT1, we then evaluated the inhibitory activities against DNMT1 and other important methyltransferases at the concentration of 50 µM, including DNMT3A/3L, DNMT3B/3L, and other SAM-dependent enzymes[1]^,[2]^,[26], such as EZH2[27], LSD1[28], G9a (histone H3 lysine 9 methyltransferase)[29].
(§3) Here, the selectivity of non-nucleoside DNMT1 inhibitors is somewhat predictable because other methyltransferases mentioned above catalyse different substrates and share very low homology with DNMT1, even in their catalytic domain[30–32]. Subsequently, the screened compounds were evaluated in a dose-dependent assay against HCT116 (human colon cancer cell line) and A549 (human lung carcinoma cell line).
(§4) 493 Relative selectivity index
(§5) 494 Relative selectivity index of DNMT1 is calculated by formula: DNMT1-selectivity
(§6) 495 index =1 - selected enzyme inhibition/DNMT1 inhibition. The closer
(§7) 496 that this value is to 1 or even more than 1, the better DNMT1-selectivity the of the
(§8) 498 Table S1. Relative selectivity index of DNMT1
Cpd. […]

[4] = tested on: DNMT3B/3L; assay: Methyltransferase enzymatic selectivity profiling, DNMT3B/3L; format: biochemical; conditions: 50 µM; for inhibitory activity against DNMT3B/3L: Figure 3; for Relative selectivity index of DNMT1 vs DNMT 3B/3L: 1 - selected enzyme inhibition/DNMT1 inhibition
Description: as §2, §3, §4, §5, §6, §7, §8
Cpd. […]

[5] = tested on: EZH2; assay: Methylation inhibition assay (AlphaLisa), EZH2; format: biochemical; conditions: 50 µM; for inhibitory activity against EZH2: Figure 3; for Relative selectivity index of DNMT1 vs EZH2: 1 - selected enzyme inhibition/DNMT1 inhibition
Description: as §1, §2, §4, §5, §6, §7, §8
Cpd. […]

[6] = tested on: LSD1; assay: Methylation inhibition assay (AlphaLisa), LSD1; format: biochemical; conditions: 1 - selected enzyme inhibition/DNMT1 inhibition; 50 µM
Description: as §1, §2, §4, §5, §6, §7, §8
Cpd. […]

[7] = tested on: G9a (histone H3 lysine 9 methyltransferase); assay: Methylation inhibition assay (AlphaLisa), G9a; format: biochemical; conditions: 50 µM; for inhibitory activity against G9a: Figure 3; for Relative selectivity index of DNMT1 vs G9a: 1 - selected enzyme inhibition/DNMT1 inhibition
Description: as §1, §2, §4, §5, §6, §7, §8
Cpd. […]

[8] = tested on: HCT116 (human colon cancer cells); assay: MTT assay, HCT116; format: cell-based
Description: (§9) The human lung cancer cells (A549) and human colon cancer cells (HCT116) were cultured in an RPMI-1640 medium containing 10% FBS, 100 U/mL streptomycin, and 100 U/mL penicillin at 37 °C in a humidified atmosphere with 5% CO2. All compounds were dissolved in DMSO and stock solutions were stored at −20 °C. Reagents were freshly diluted to the marked concentrations with a culture medium before use. DMSO concentration in experimental conditions never exceeded 0.1% (v/v). All cell lines were provided by the cell laboratory, School of pharmaceutical sciences, Guangzhou Medical University.
(§10) Cell viability was detected using an MTT assay kit. Cells were seeded into 96-well plates at a density of ∼1.0 × 10^4/well. 24 h later, sextuplicate wells were treated with media and new compounds at a fixed concentration (50 µM). After 24, 48, and 72 h, the drug-containing medium was replaced by a 100 µL fresh medium with 5 mg/mL MTT solution. After 4 h of incubation, the medium with MTT was removed, and 100 µL of DMSO was added to each well. The plates were gently agitated until the purple formazan crystals were dissolved, and the OD490 was determined using a […] (Olympus BX53, Japan). The data were calculated and plotted as the percent viability compared to the control.

[9] = tested on: A549 (human lung cancer cells); assay: MTT assay, A549; format: cell-based
Description: as §9, §10

[10] = HCT-116, 48 h, read-out: Inh % at 50 μM, HCT116, 48 h
[11] = HCT-116, 72 h, read-out: Inh % at 50 μM, HCT116, 72 h
[12] = 48 h, read-out: Inh % at 50 μM, A549, 48 h
[13] = 72 h, read-out: Inh % at 50 μM, A549, 72 h
[14] = HCT-116, 24 h, read-out: Inh % at 50 μM, HCT116, 24 h
[15] = 24 h, read-out: Inh % at 50 μM, A549, 24 h

Structure (SMILES): Oc1ccc(CCNCC(O)Cn2c3ccc(F)cc3c3cc(F)ccc32)cc1 (stereo not shown) [WK-13, 4-(2-((3-(3,6-Difluoro-9H-carbazol-9-yl)-2-hydroxypropyl)amino)ethyl) phenol]
- Inh% at 50 μM [1]: 82%
- Inh% at 100 μM [1]: 90%
- IC50 [2]: 19 µM
- Relative selectivity index of DNMT1 vs DNMT 3A/3L [3]: 0.68
- inhibitory activity against DNMT3B/3L [4]: hardly any inhibitory activities
- Relative selectivity index of DNMT1 vs DNMT 3B/3L [4]: 1.28
- inhibitory activity against EZH2 [5]: hardly any inhibitory activities
- Relative selectivity index of DNMT1 vs EZH2 [5]: 1.01
- Relative selectivity index of DNMT1 vs LSD1 [6]: 0.33
- inhibitory activity against G9a [7]: hardly any inhibitory activities
- Relative selectivity index of DNMT1 vs G9a [7]: 0.91
- inhibition at 50 µM [8, 10]: 86.3%
- inhibition at 50 µM [8, 11]: 93.2%
- inhibition at 50 µM [9, 12]: 69.2%
- inhibition at 50 µM [9, 13]: 84.1%
- melting point: 143 to 145 °C

Structure (SMILES): CC(CO)NCC(O)Cn1c2ccc(F)cc2c2cc(F)ccc21 (stereo not shown) [WK-19, 2-((3-(3,6-Difluoro-9H-carbazol-9-yl)-2-hydroxypropyl)amino)propan-1-ol]
- Inh% at 50 μM [1]: 78%
- Inh% at 100 μM [1]: 93%
- IC50 [2]: 9.2 µM
- Relative selectivity index of DNMT1 vs DNMT 3A/3L [3]: 0.67
- Relative selectivity index of DNMT1 vs DNMT 3B/3L [4]: 1.29
- Relative selectivity index of DNMT1 vs EZH2 [5]: 1.01
- Relative selectivity index of DNMT1 vs LSD1 [6]: 0.29
- Relative selectivity index of DNMT1 vs G9a [7]: 0.91
- inhibition at 50 µM [8, 14]: 5.6%
- inhibition at 50 µM [8, 10]: 59.4%
- inhibition at 50 µM [8, 11]: 88.3%
- inhibition at 50 µM [9, 15]: 7.9%
- inhibition at 50 µM [9, 12]: 68.4%
- inhibition at 50 µM [9, 13]: 79.9%
- melting point: 136 to 138 °C

Structure (SMILES): OC(CNCCc1c[nH]c2ccccc12)Cn1c2ccccc2c2cc(F)ccc21 (stereo not shown) [WK-1, 1-((2-(1H-indol-3-yl)ethyl)amino)-3-(3-fluoro-9H-carbazol-9-yl)propan-2-ol]
- Inh% at 50 μM [1]: 82%
- Inh% at 100 μM [1]: 100%
- IC50 [2]: 28 µM
- Relative selectivity index of DNMT1 vs DNMT 3A/3L [3]: 0.49
- inhibitory activity against DNMT3B/3L [4]: hardly any inhibitory activities
- Relative selectivity index of DNMT1 vs DNMT 3B/3L [4]: 1.15
- inhibitory activity against EZH2 [5]: hardly any inhibitory activities
- Relative selectivity index of DNMT1 vs EZH2 [5]: 0.93
- Relative selectivity index of DNMT1 vs LSD1 [6]: 0.18
- inhibitory activity against G9a [7]: hardly any inhibitory activities
- Relative selectivity index of DNMT1 vs G9a [7]: 0.84
- inhibition at 50 µM [8, 14]: 90.9%
- inhibition at 50 µM [8, 10]: 88%
- inhibition at 50 µM [8, 11]: 94.9%
- inhibition at 50 µM [9, 15]: 88.2%
- inhibition at 50 µM [9, 12]: 78.6%
- inhibition at 50 µM [9, 13]: 87.6%
- melting point: 137 to 139 °C

Source: publication PMC9186373, “Design, synthesis, and biological evaluation of novel carbazole derivatives as potent DNMT1 inhibitors with reasonable PK properties” (Journal of Enzyme Inhibition and Medicinal Chemistry, 2022)
